# Test results: patent US6753338B2, “Methods for treating hypertension, angina, and congestive heart failure using of optically pure (-) amlodipine” (Sepracor Inc., priority 1991, dated 2004)
# Test system: K+-depolarized isolated guinea pig ileal segment
# Test: Calcium antagonism, guinea pig ileum (in vitro)
# Settings: Cavia porcellus; reference agents; K+-depolarized ileal segment in Ca-free physiological salt solution, 37° C., added calcium 20 μg/ml CaCl; read-out: ED100 (inhibition of contractile response to added calcium)
# Text: Calcium Antagonism, Guinea Pig Ileum (in Vitro):
row,SMILES,IC100 [µg/mL]
1,CN1CCC(=C2c3ccccc3C=Cc3ccccc32)CC1 [cyproheptadine],0.025
2,COc1ccc([C@@H]2Sc3ccccc3N(CCN(C)C)C(=O)[C@@H]2OC(C)=O)cc1 [diltiazem],0.01
3,CN(C)CCOC(c1ccccc1)c1ccccc1 [diphenhydramine],1
4,Fc1ccc(C(c2ccc(F)cc2)N2CCN(C/C=C/c3ccccc3)CC2)cc1 [flunarizine],0.1
5,COc1ccc(CN(CCN(C)C)c2ccccn2)cc1 [mepyramine],> 5
6,COc1ccc(Cc2nccc3cc(OC)c(OC)cc23)cc1OC [papaverine],4
7,CC(CN1c2ccccc2Sc2ccccc21)N(C)C (stereo not shown) [promethazine],0.25
8,CC(C)NCC(O)COc1cccc2ccccc12 (stereo not shown) [propranolol],4

# Same assay, conditions: reference agents; K+-depolarized ileal segment in Ca-free physiological salt solution, 37° C., added calcium 20 μg/ml CaCl
row,SMILES,ED100 (inhibition of contractile response to added calcium) [µg/mL]
1,C(=C\c1ccccc1)/CN1CCN(C(c2ccccc2)c2ccccc2)CC1 [cinnazrizine],1
2,CC(C)[N+]1(C)[C@@H]2CC[C@H]1CC(OC(=O)C(CO)c1ccccc1)C2.[Br-] (stereo partly shown) [ipratropium bromide],> 2
3,CC(COc1ccccc1)NC(C)C(O)c1ccc(O)cc1 (stereo not shown) [isoxuprine],4

# Test system: β-adrenergic
# Test: not given
# Settings: L-form versus D-enantiomer; cited from earlier work
row,SMILES,potency relative to the D-enantiomer [times]
1,CC(C)NC[C@H](O)COc1cccc2ccccc12,100

# Test system: potassium-depolarized rat aorta
# Test: not given
# Settings: in vitro; cited from earlier work
row,SMILES,activity relative to the racemic mixture in antagonizing calcium-induced constriction
1,"CCOC(=O)C1=C(COCCN)NC(C)=C(C(=O)OC)C1c1ccccc1Cl (single isomer, unassigned; isomer 3) [(−) isomer, 3-ethyl 5-methyl (−)-2-[2-aminoethoxy)methyl]-4-(2-chlorophenyl)-1,4-dihydro-6-methyl-3,5-pyridine dicarboxylate]",twice as active as the racemic mixture
